Values after ≈ are worked out from the molar mass of the structure shown.
Key:
Propionibacterium acnes = assay: MIC, in vitro agar dilution assay, anaerobic bacteria (Table III); format: cell-based; conditions: 10^6 CFU per spot
Veillonella alcalescens = assay: as above; format: cell-based; conditions: 10^6 CFU per spot
Ent. cloacae P99^+ = assay: MIC, in vitro agar dilution assay, aerobic bacteria (Table II); format: cell-based; conditions: Ent. cloacae P99^+; 10^6 CFU per spot
Prot. morganii Sm^R = assay: as above; format: cell-based; conditions: Prot. morganii Sm^R; 10^6 CFU per spot
S. aureus Gm^R Meth^R = assay: as above; format: cell-based; conditions: S. aureus Gm^R Meth^R; 10^6 CFU per spot
[1] = test system: C. difficile Clind^r, Fox^r; assay: MIC, in vitro agar dilution assay, anaerobic bacteria (Table III); format: cell-based; conditions: 10^6 CFU per spot
[2] = test system: B. distasonis Pen^r Fox^r Clind^r; assay: as above; format: cell-based; conditions: 10^6 CFU per spot
C. ramosum = assay: as above; format: cell-based; conditions: 10^6 CFU per spot
E. coli TEM 2^+ DC 2 = assay: MIC, in vitro agar dilution assay, aerobic bacteria (Table II); format: cell-based; conditions: E. coli TEM 2^+ DC 2; 10^6 CFU per spot
E. coli TEM 2^+ = assay: as above; format: cell-based; conditions: E. coli TEM 2^+; 10^6 CFU per spot
[3] = test system: Klebsiella pneumoniae MB 4005; assay: standard mouse protection test, experimental systemic infection; format: in vivo, CD1 female mice; conditions: × 2 i.p. doses (immediately after infection and 6 hours later), 7 days
Experimental: The antibacterial efficacy of difficidin and its derivatives was further determined in standard mouse protection tests. An experimental systemic infection was produced in CD1 female mice (Charles River Breeding Laboratories, Wilmington, MA) by the intraperitoneal injection of a suitably diluted broth culture of Klebsiella pneumoniae MB 4005. The test antibacterial compounds and the control drug (streptomycin) were administered parenterally (intraperitoneally) immediately after infection and again 6 hours later. At least 4 fourfold dilutions of each agent were tested. There were 5 mice at each dose level. […] Under the conditions of the test, all infected untreated mice died within 48 hours.
Mice were protected by the administration of the test antibacterial compounds or streptomycin at the median effective doses shown in Table IV below.

Eubacterium limosum = assay: MIC, in vitro agar dilution assay, anaerobic bacteria (Table III); format: cell-based; conditions: 10^6 CFU per spot
Ent. cloacae P99^- = assay: MIC, in vitro agar dilution assay, aerobic bacteria (Table II); format: cell-based; conditions: Ent. cloacae P99^-; 10^6 CFU per spot
C. difficile Fox^r = assay: MIC, in vitro agar dilution assay, anaerobic bacteria (Table III); format: cell-based; conditions: C. difficile Fox^r; 10^6 CFU per spot
Ps. aeruginosa RPL 11^+ = assay: MIC, in vitro agar dilution assay, aerobic bacteria (Table II); format: cell-based; conditions: Ps. aeruginosa RPL 11^+; 10^6 CFU per spot
[4] = test system: B. distasonis Pen^r Fox^r; assay: MIC, in vitro agar dilution assay, anaerobic bacteria (Table III); format: cell-based; conditions: 10^6 CFU per spot
E. coli DC 2 = assay: MIC, in vitro agar dilution assay, aerobic bacteria (Table II); format: cell-based; conditions: E. coli DC 2; 10^6 CFU per spot
[5] = test system: B. fragilis Clind^r Fox^r Tet^r; assay: MIC, in vitro agar dilution assay, anaerobic bacteria (Table III); format: cell-based; conditions: 10^6 CFU per spot
[6] = test system: B. thetaiotaomicron Clind^r, NCCLS control strain; assay: as above; format: cell-based; conditions: 10^6 CFU per spot
Ps. aeruginosa = assay: MIC, in vitro agar dilution assay, aerobic bacteria (Table II); format: cell-based; conditions: Ps. aeruginosa, first unmarked strain; 10^6 CFU per spot
Ent. aerogenes = assay: as above; format: cell-based; conditions: Ent. aerogenes; 10^6 CFU per spot
B. fragilis Pen^r = assay: MIC, in vitro agar dilution assay, anaerobic bacteria (Table III); format: cell-based; conditions: 10^6 CFU per spot
[7] = test system: Klebsiella pneumoniae MB 4005; assay: MIC listed with mouse protection test (Table IV); format: cell-based
anaerobic bacteria = assay: antibacterial activity against anaerobic bacteria, summary; format: cell-based; conditions: wide spectrum of anaerobic bacteria
Prot. mirabilis Gm^R = assay: MIC, in vitro agar dilution assay, aerobic bacteria (Table II); format: cell-based; conditions: 10^6 CFU per spot
Ser. marcescens = assay: as above; format: cell-based; conditions: 10^6 CFU per spot
[8] = test system: Peptostreptococcus anaerobius; assay: MIC, in vitro agar dilution assay, anaerobic bacteria (Table III); format: cell-based; conditions: 10^6 CFU per spot
[9] = test system: B. thetaiotaomicron Clind^r; assay: as above; format: cell-based; conditions: 10^6 CFU per spot
B. ovatus Pen^r = assay: as above; format: cell-based; conditions: 10^6 CFU per spot
[10] = test system: Clostridium perfringens NCCLS control strain; assay: microbe, parasite or virus in culture; format: cell-based; conditions: Clostridium perfringens NCCLS control strain; 10^6 CFU per spot
Sal. typhimurium = assay: MIC, in vitro agar dilution assay, aerobic bacteria (Table II); format: cell-based; conditions: 10^6 CFU per spot
[11] = test system: Bacteriodes fragilis Metr^r, Pen^r; assay: MIC, in vitro agar dilution assay, anaerobic bacteria (Table III); format: cell-based; conditions: 10^6 CFU per spot
K. pneumoniae Kl^+ = assay: MIC, in vitro agar dilution assay, aerobic bacteria (Table II); format: cell-based; conditions: 10^6 CFU per spot
[12] = test system: B. fragilis NCCLS control strain; assay: MIC, in vitro agar dilution assay, anaerobic bacteria (Table III); format: cell-based; conditions: 10^6 CFU per spot
Vibrio percolans MB 1272 = assay: in vitro agar disc diffusion bioassay of column fractions (Table V); format: cell-based
Experimental: A 0.4 ml sample of 2.1 L spent ethyl acetate fraction from Step A above was evaporated to an oily residue and taken up in 0.7 ml of 7:3 methanol-0.01Mpotassium phosphate pH 7.0. A 0.4 ml aliquot of the solution was chromatographed in the same solvent at 28° C. on a Dupont Zorbax ODS column (4.6 mn ID×25 cm), 10 micron. The flow rate was 1 ml/min. and column effluent was monitored at 275 nm using a Laboratory Data Control Spectra Monitor I ultraviolet detector equipped with a 10 mm pathlength flow cell and a Honeywell Electronik 195 recorder. Eluate was collected in 0.5 ml fractions and assayed by agar disc diffusion against Vibrio percolans MB 1272. Table V summaries bioassay results.
The data in Table V show the presence of two distinct antibacterial substances in spent ethyl acetate. The activity in Fractions 11 and 12 is due to the antibacterial oxydifficidin. The activity in Fractions 61-65 is due to the antibacterial difficidin.

Row | SMILES | MIC (Propionibacterium acnes) [µg/mL] | MIC (Veillonella alcalescens) [µg/mL] | MIC (Ent. cloacae P99^+) [µg/mL] | MIC (Prot. morganii Sm^R) [µg/mL] | MIC (S. aureus Gm^R Meth^R) [µg/mL] | MIC [1] [µg/mL] | MIC [2] [µg/mL] | MIC (C. ramosum) [µg/mL] | MIC (E. coli TEM 2^+ DC 2) [µg/mL] | MIC (E. coli TEM 2^+) [µg/mL] | MIC (Eubacterium limosum) [µg/mL] | MIC (Ent. cloacae P99^-) [µg/mL] | MIC (C. difficile Fox^r) [µg/mL] | MIC (Ps. aeruginosa RPL 11^+) [µg/mL] | MIC [4] [µg/mL] | MIC (E. coli DC 2) [µg/mL] | MIC [5] [µg/mL] | MIC [6] [µg/mL] | MIC (Ps. aeruginosa) [µg/mL] | MIC (Ent. aerogenes) [µg/mL] | also measured
1 | C=CC=C(C)CCC1CC=CC=C(C)C(OP(=O)(O)O)CCCC=CC=CC=CCC(C)C(=C)CC(=O)O1 (stereo not shown) [Difficidin, difficidin] | 1 (≈ 1.84 µM) | 0.25 (≈ 0.459 µM) | 16.0 (≈ 29.4 µM) | 2.0 (≈ 3.67 µM) | 8.0 (≈ 14.7 µM) | 0.125 (≈ 0.229 µM) | 0.06 (≈ 0.11 µM) | 2 (≈ 3.67 µM) | 8.0 (≈ 14.7 µM) | 8.0 (≈ 14.7 µM) | > 128 | 8.0 (≈ 14.7 µM) | 0.06 (≈ 0.11 µM) | 8.0 (≈ 14.7 µM) | > 128 | 8.0 (≈ 14.7 µM) | 0.25 (≈ 0.459 µM) | 0.06 (≈ 0.11 µM) | 8.0 (≈ 14.7 µM) | 8.0 (≈ 14.7 µM) | ED50 ([3]; Test No. 3): 1.56 mg/kg; MIC (B. fragilis Pen^r): 0.125 µg/mL (≈ 0.229 µM); MIC [7]: 8 µg/mL (≈ 14.7 µM); activity against anaerobic bacteria (anaerobic bacteria): active against a wide spectrum of anaerobic bacteria; MIC (Prot. mirabilis Gm^R): 8.0 µg/mL (≈ 14.7 µM); MIC (Ser. marcescens): 4.0 µg/mL (≈ 7.34 µM); MIC [8]: 0.06 µg/mL (≈ 0.11 µM); MIC [9]: 0.25 µg/mL (≈ 0.459 µM); MIC (B. ovatus Pen^r): 0.125 µg/mL (≈ 0.229 µM); MIC [10]: > 128 µg/mL; MIC (Sal. typhimurium): 8.0 µg/mL (≈ 14.7 µM); MIC [11]: 0.125 µg/mL (≈ 0.229 µM); MIC (K. pneumoniae Kl^+): 8.0 µg/mL (≈ 14.7 µM); MIC [12]: 0.06 µg/mL (≈ 0.11 µM); Zone Diameter (Vibrio percolans MB 1272; Fraction 61, 40 μl on 3/8" disc): 12 mm; Zone Diameter (Vibrio percolans MB 1272; Fraction 62, 40 μl on 3/8" disc): 12 mm; Zone Diameter (Vibrio percolans MB 1272; Fraction 63, 40 μl on 3/8" disc): 12 mm; Zone Diameter (Vibrio percolans MB 1272; Fraction 64, 40 μl on 3/8" disc): 12 mm; Zone Diameter (Vibrio percolans MB 1272; Fraction 65, 40 μl on 3/8" disc): 12 mm
2 | C=CC=C(C)CCC1CC=CC=C(C)C(OP(=O)(O)O)CCCC=CC=CC=CC(O)C(C)C(=C)CC(=O)O1 (stereo not shown) [Oxydifficidin, oxydifficidin] | 8 (≈ 14.3 µM) | 0.06 (≈ 0.107 µM) | 32.0 (≈ 57.1 µM) | 2.0 (≈ 3.57 µM) | 32.0 (≈ 57.1 µM) | 0.06 (≈ 0.107 µM) | 0.06 (≈ 0.107 µM) | 2 (≈ 3.57 µM) | 8.0 (≈ 14.3 µM) | 16.0 (≈ 28.5 µM) | > 128 | 64.0 (≈ 114 µM) | 0.06 (≈ 0.107 µM) | 16.0 (≈ 28.5 µM) | > 128 | 4.0 (≈ 7.13 µM) | 0.25 (≈ 0.446 µM) | 0.25 (≈ 0.446 µM) | 32.0 (≈ 57.1 µM) | 32.0 (≈ 57.1 µM) | ED50 ([3]; Test No. 1): 12.25 mg/kg; ED50 ([3]; Test No. 2): 14.85 mg/kg; MIC (B. fragilis Pen^r): 0.125 µg/mL (≈ 0.223 µM); MIC [7]: 8 µg/mL (≈ 14.3 µM); activity against anaerobic bacteria (anaerobic bacteria): active against a wide spectrum of anaerobic bacteria; MIC (Prot. mirabilis Gm^R): 32.0 µg/mL (≈ 57.1 µM); MIC (Ser. marcescens): 16.0 µg/mL (≈ 28.5 µM); MIC [8]: 0.06 µg/mL (≈ 0.107 µM); MIC [9]: 0.25 µg/mL (≈ 0.446 µM); MIC (B. ovatus Pen^r): 0.25 µg/mL (≈ 0.446 µM); MIC [10]: > 128 µg/mL; MIC (Sal. typhimurium): 32.0 µg/mL (≈ 57.1 µM); MIC [11]: 0.25 µg/mL (≈ 0.446 µM); MIC (K. pneumoniae Kl^+): 8.0 µg/mL (≈ 14.3 µM); MIC [12]: 0.25 µg/mL (≈ 0.446 µM); Zone Diameter (Vibrio percolans MB 1272; Fraction 11, 40 μl on 3/8" disc): 23 mm; Zone Diameter (Vibrio percolans MB 1272; Fraction 12, 40 μl on 3/8" disc): 19 mm
